# Results reported in patent US20240181022A1, “AMURINS LYSINS, AND LYSIN-ANTIMICROBIAL PEPTIDE (AMP) CONSTRUCTS ACTIVE AGAINST GRAM-NEGATIVE BACTERIA” (priority 2021, published 2024).
# Like-named read-outs stand apart in the source and are kept apart here. Where a SMILES comes first, the peptide text is derived from it. [ ]: non-standard residue; d: D form.
# How the values were obtained:
# [1] = system: Gram-negative bacteria (including P. aeruginosa, E. cloacae, K. pneumoniae, E. coli, and A. baumannii); assay: Inner membrane depolarization (diSC3-5 release); format: cell-based; settings: equivalent or superior to melittin, LL37, RI-18, and PMBN
# Description: The mechanism of action of Chp peptides disclosed herein can also be evaluated by measuring the depolarization of the inner membrane of Gram-negative bacteria, including MDR and XDR strains. The inner membrane comprises […] phospholipids such as cardiolipin, phosphatidylglycerol, and phosphatidylserine. This creates a net negative charge at physiological pH, which is believed to enhance the binding of cationic peptides, including the Chp peptides disclosed herein. Upon permeabilization of the outer membrane, the ability of Chp peptides to induce dissipation of the cytoplasmic membrane electrical potential gradient (Ay) may be examined, for example by following the release of 3,3′-dipropylthiadicarbocyanine (diSC3-5) as a function of time compared to an untreated control. DiSC3-5 is a fluorophore that is a caged cation concentrated within the bacterial inner membrane and under the influence of the bacterial membrane electrical potential gradient. At high concentrations, diSC3-5 self-quenches, leading to the suppression of fluorescence. When the inner membrane deteriorates or becomes leaky for cations, including protons, the Δψ dissipates, which leads to a release of diSC3-5 and a subsequent increase in fluorescence. […] Without wishing to be bound by theory, it is believed that the adsorption and binding of Chp peptides to the inner membrane and insertion into the lipid bilayer results in membrane permeabilization and pore/ion channel formation, which is concomitant with the collapse of the membrane's electrical potential.
# M. smegmatis = assay: MIC against M. smegmatis; format: cell-based, Mycobacterium smegmatis; settings: M. smegmatis (MC 155); CAAT media
# M. tuberculosis = format: cell-based, Mycobacterium tuberculosis
# P. apista [2] = format: cell-based, Pandoraea apista
# Protocol: (§1) The MBEC (after 2-hour treatments) was determined as described in Jones and Wozniak, PsI Produced by Mucoid Pseudomonas aeruginosa Contributes to the Establishment of Biofilms and Immune Evasion, Am. Soc. Microbiol. 2017, 8(3):e00864-17. Meropenem and tobramycin were included as controls and were both poorly active, with MBEC90 values of >256 μg/mL (data not shown).
# B. cenocepacia [3] = format: cell-based, Burkholderia cenocepacia
# Protocol: as §1
# M. abscessus = assay: MIC against MDR M. abscessus isolates; format: cell-based, Mycobacterium abscessus; settings: 7 days; for MIC: AST media (CAAT)
# B. multivorans = assay: MIC by broth microdilution against B. multivorans; format: cell-based, Burkholderia multivorans; settings: B. multivorans isolates
# Protocol: (§2) MIC values were determined using a modification of the standard broth microdilution reference method defined by the Clinical and Laboratory Standards Institute (CLSI), CLSL. 2015. Methods for Dilution Antimicrobial Susceptibility Tests for Bacteria That Grow Aerobically; Approved Standard-10th Edition. Clinical and Laboratory Standards Institute, Wayne, PA. The modification was based on the replacement of Mueller Hinton Broth with either CAA media (with and without NaCl) or CAA supplemented with 2.5% human serum. MIC is the minimum concentration of peptide sufficient to suppress at least 80% of the bacterial growth compared to control.
# (§3) Based on these nine most prevalent strains, direct lytic agents, including GN370, AM1, AM2, and AM3, were evaluated against various isolates from each of the 9 strains. MICs and MBECs (Example 3) were determined, and a sputum inhibition test was conducted, as described below in Example 5.
# (§4) The MICs for were determined as described below using the broth microdilution method for meropenem, GN370, AM1, AM2, and AM3. The results are shown below in Tables 8-12.
# M. intracellulare = assay: MIC against M. intracellulare; format: cell-based, Mycobacterium intracellulare; settings: M. intracellulare (ATCC 13950); CAAT media
# B. cenocepacia [4] = assay: MIC by broth microdilution against B. cenocepacia; format: cell-based, Burkholderia cenocepacia; settings: B. cenocepacia isolates
# Protocol: as §2, §3, §4
# P. apista [5] = assay: MIC by broth microdilution against P. apista; format: cell-based, Pandoraea apista; settings: P. apista isolates
# Protocol: as §2, §3, §4
# A. dolens = assay: MIC by broth microdilution against A. dolens; format: cell-based, Achromobacter dolens; settings: A. dolens isolates
# Protocol: as §2, §3, §4
# Achromobacter spp. = assay: MIC by broth microdilution against Achromobacter spp.; format: cell-based; settings: Tables 8-12
# Protocol: as §2, §4
# M. kansasii = assay: MIC against M. kansasii; format: cell-based, Mycobacterium kansasii; settings: M. kansasi (ATCC 12478); CAAT media
# [6] = all tested isolates, Tables 8-12
compound,measurement,setting,value
CC[C@H](C)[C@H](NC(=O)[C@@H](CCCNC(=N)N)NC(=O)[C@H](Cc1ccccc1)NC(=O)CNC(=O)CNC(=O)[C@@H](CCCNC(=N)N)NC(=O)[C@H](CCSC)NC(=O)[C@@H]1CCCN1C(=O)[C@@H](CCCNC(=N)N)NC(=O)[C@H](C)NC(=O)[C@@H](CCCNC(=N)N)NC(=O)[C@H](CC(C)C)NC(=O)[C@H](CC(N)=O)NC(=O)[C@@H](CCCNC(=N)N)NC(=O)[C@@H](CCCCN)NC(=O)[C@@H](CCCCN)NC(=O)[C@@H](NC(=O)[C@H](CC(N)=O)NC(=O)[C@@H](NC(=O)[C@H](C)NC(=O)CNC(=O)[C@@H](CCCNC(=N)N)NC(=O)[C@@H](NC(=O)[C@H](Cc1ccccc1)NC(=O)[C@@H](NC(=O)[C@@H](CCCCN)NC(=O)[C@@H](CCCNC(=N)N)NC(=O)[C@H](CO)NC(=O)[C@@H](CCCCN)NC(=O)[C@@H](CCCCN)NC(=O)[C@@H](CCCCN)NC(=O)[C@H](CO)NC(=O)[C@H](CC(C)C)NC(=O)[C@@H](CCCCN)NC(=O)[C@@H](CCCNC(=N)N)NC(=O)[C@@H](CCCNC(=N)N)NC(=O)[C@@H](CCCCN)NC(=O)[C@@H](N)CCSC)[C@@H](C)CC)[C@@H](C)O)C(C)C)C(C)C)C(=O)O [AM3] (H-M[dK][dR][dR][dK]LS[dK][dK][dK]S[dR][dK]IFT[dR]GAVNV[dK][dK][dR]NL[dR]A[dR]PM[dR]GGF[dR]I-OH; N-terminus and C-terminus assumed),inner membrane depolarization (diSC3-5),[1],dose-dependent increase in membrane depolarization
same,MIC50,S. maltophilia; S. maltophilia isolates,0.5 µg/mL
same,MIC90,S. maltophilia; S. maltophilia isolates,1 µg/mL
same,MIC Range,"S. maltophilia; S. maltophilia isolates, in µg/mL",0.016-2
same,MIC,S. maltophilia; S. maltophilia test organism of the sputum time-kill assay,AM3 (MIC = 0.25)
same,activity (MIC) against S. maltophilia isolates,S. maltophilia; [6],highly active
same,MIC,M. smegmatis,1 µg/mL
same,MIC,"M. tuberculosis; M. tuberculosis (ATCC 35817), (ADC, T) media",8 µg/mL
same,MIC,"M. tuberculosis; M. tuberculosis strain TN8109_LB (MDR), 7H9 broth, 20 days",16 µg/mL
same,MIC,"M. tuberculosis; M. tuberculosis strain TN8562_M33 (susc), 7H9 broth, 20 days",16 µg/mL
same,MIC,"M. tuberculosis; M. tuberculosis strain TN10525_LL (MDR), 7H9 broth, 20 days",64 µg/mL
same,MIC,"M. tuberculosis; M. tuberculosis strain TN10571_KY (MDR), 7H9 broth, 20 days",16 µg/mL
same,MIC,"M. tuberculosis; M. tuberculosis strain TN12657_KQ15 (IS), 7H9 broth, 20 days",16 µg/mL
same,MIC,"M. tuberculosis; M. tuberculosis strain TN13923_HD17 (susc), 7H9 broth, 20 days",32 µg/mL
same,MIC,"M. tuberculosis; M. tuberculosis strain TN18349_W738 (susc), 7H9 broth, 20 days",4 µg/mL
same,MIC,"M. tuberculosis; M. tuberculosis strain TN34503_001 (susc), 7H9 broth, 20 days",16 µg/mL
same,MBEC50,P. apista [2],8 µg/mL
same,MBEC90,P. apista [2],8 µg/mL
same,MBEC Range,P. apista [2],4 to 16 µg/mL
same,MBEC50,B. cenocepacia [3],16 µg/mL
same,MBEC90,B. cenocepacia [3],32 µg/mL
same,MBEC Range,B. cenocepacia [3],1 to 32 µg/mL
same,activity (MIC) against M. abscessus,"M. abscessus; 5 clinical MDR strains and 1 ATCC strain, CAAT",highly active
same,MIC,M. abscessus; M. abscessus strain BK51402,1 µg/mL
same,MIC,M. abscessus; M. abscessus strain BK51403 (ATCC 19977),4 µg/mL
same,MIC,M. abscessus; M. abscessus strain BK51408,4 µg/mL
same,MIC,M. abscessus; M. abscessus strain BK55096,2 µg/mL
same,MIC,M. abscessus; M. abscessus strain BK55691,1 µg/mL
same,MIC,M. abscessus; M. abscessus strain BK58156,1 µg/mL
same,MIC50,B. multivorans,> 128 µg/mL
same,MIC90,B. multivorans,> 128 µg/mL
same,MIC,M. intracellulare,2 µg/mL
same,MIC50,P. aeruginosa; P. aeruginosa isolates,0.06 µg/mL
same,MIC90,P. aeruginosa; P. aeruginosa isolates,0.25 µg/mL
same,MIC Range,"P. aeruginosa; P. aeruginosa isolates, in µg/mL",0.016-1
same,MIC,P. aeruginosa; P. aeruginosa test organism of the sputum time-kill assay,(MIC = 0.125)
same,activity (MIC) against P. aeruginosa isolates,P. aeruginosa; [6],highly active
same,MIC50,B. cenocepacia [4],> 128 µg/mL
same,MIC90,B. cenocepacia [4],> 128 µg/mL
same,MIC50,P. apista [5],> 128 µg/mL
same,MIC90,P. apista [5],> 128 µg/mL
same,MIC50,A. dolens,2 µg/mL
same,MIC90,A. dolens,8 µg/mL
same,MIC Range,A. dolens; in µg/mL,0.016-16
same,activity (MIC) against Achromobacter spp.,Achromobacter spp.,variably active
same,MIC,M. kansasii,1 µg/mL
